Results reported in ChEMBL document CHEMBL4800722, “Data for DCP probe BI 605906” (2021).

Key:
[1] = biological target: Voltage-dependent N-type calcium channel subunit alpha-1B (Rattus norvegicus) (UniProt Q02294); test: CA+/N/RA Eurofins SafetyScreen44 (BI); conditions: Compound concentration 10.0 uM
[2] = biological target: Phosphodiesterase 3 (Homo sapiens) (UniProt Q14432+Q13370); test: PDE-III/HU Eurofins SafetyScreen44 (BI); assay type: protein assay; conditions: Compound concentration 10.0 uM
[3] = biological target: Urotensin-2 receptor (Homo sapiens) (UniProt Q9UKP6); test: UROTENSIN_II Eurofins SafetyScreen44 (BI); conditions: Compound concentration 10.0 uM
[4] = biological target: Atypical kinase COQ8A, mitochondrial (Homo sapiens) (UniProt Q8NI60); test: ADCK3 Invitrogen Lab (UK) kinase screen (BI); conditions: Compound concentration 1.0 uM
[5] = biological target: Serine/threonine-protein kinase/endoribonuclease IRE2 (Homo sapiens) (UniProt Q76MJ5); test: ERN2 Invitrogen Lab (UK) kinase screen (BI); conditions: Compound concentration 1.0 uM
[6] = biological target: Ribosomal protein S6 kinase beta-2 (Homo sapiens) (UniProt Q9UBS0); test: RPS6KB2 (P70S6KB) Invitrogen Lab (UK) kinase screen (BI); conditions: Compound concentration 1.0 uM
[7] = biological target: Serine/threonine-protein kinase 38 (Homo sapiens) (UniProt Q15208); test: STK38 (NDR) Invitrogen Lab (UK) kinase screen (BI); conditions: Compound concentration 1.0 uM
[8] = biological target: Casein kinase I isoform epsilon (Homo sapiens) (UniProt P49674); test: CSNK1E Invitrogen Lab (UK) kinase screen (BI); conditions: Compound concentration 1.0 uM
[9] = biological target: MAP kinase-interacting serine/threonine-protein kinase 1 (Homo sapiens) (UniProt Q9BUB5); test: MKNK1 Invitrogen Lab (UK) kinase screen (BI); conditions: Compound concentration 1.0 uM
[10] = biological target: PAS domain-containing serine/threonine-protein kinase (Homo sapiens) (UniProt Q96RG2); test: PASK Invitrogen Lab (UK) kinase screen (BI); conditions: Compound concentration 1.0 uM
[11] = biological target: Phosphorylase b kinase gamma catalytic chain, skeletal muscle/heart isoform (Homo sapiens) (UniProt Q16816); test: PHKG1 Invitrogen Lab (UK) kinase screen (BI); conditions: Compound concentration 1.0 uM
[12] = biological target: Protein kinase C zeta type (Homo sapiens) (UniProt Q05513); test: PRKCZ Invitrogen Lab (UK) kinase screen (BI); conditions: Compound concentration 1.0 uM
[13] = biological target: MAP/microtubule affinity-regulating kinase 3 (Homo sapiens) (UniProt P27448); test: MARK3 DUNDEE kinase screen (BI); conditions: Compound concentration 10.0 uM
[14] = biological target: Dual specificity mitogen-activated protein kinase kinase 1 (Homo sapiens) (UniProt Q02750); test: MKK1 DUNDEE kinase screen (BI); conditions: Oryctolagus cuniculus; Compound concentration 10.0 uM
[15] = biological target: Ribosomal protein S6 kinase beta-1 (Homo sapiens) (UniProt P23443); test: S6K1 DUNDEE kinase screen (BI); conditions: Compound concentration 10.0 uM
[16] = biological target: Mitogen-activated protein kinase 14 (Homo sapiens) (UniProt Q16539); test: SAPK2AP38 DUNDEE kinase screen (BI); conditions: Compound concentration 10.0 uM
[17] = biological target: 5-hydroxytryptamine receptor 2B (Homo sapiens) (UniProt P41595); conditions: Compound concentration 10.0 uM
[18] = biological target: Histamine H3 receptor (Homo sapiens) (UniProt Q9Y5N1); conditions: Compound concentration 10.0 uM
[19] = biological target: Alpha-1A adrenergic receptor (Homo sapiens) (UniProt P35348); conditions: Compound concentration 10.0 uM
[20] = biological target: Sodium/potassium-transporting ATPase (Sus scrofa) (UniProt P05027+P05024+D2WKD8+D2WKD7+F1ST41); conditions: Compound concentration 10.0 uM
[21] = biological target: Prostaglandin G/H synthase 2 (Homo sapiens) (UniProt P35354); conditions: Compound concentration 10.0 uM
[22] = biological target: D(3) dopamine receptor (Homo sapiens) (UniProt P35462); conditions: Compound concentration 10.0 uM
[23] = biological target: AMP-activated protein kinase alpha-1/beta-2/gamma-3 (Homo sapiens) (UniProt O43741+Q13131+Q9UGI9); conditions: Compound concentration 1.0 uM
[24] = biological target: Hormonally up-regulated neu tumor-associated kinase (Homo sapiens) (UniProt P57058); conditions: Compound concentration 1.0 uM
[25] = biological target: Kinase suppressor of Ras 2 (Homo sapiens) (UniProt Q6VAB6); conditions: Compound concentration 1.0 uM
[26] = biological target: Eukaryotic elongation factor 2 kinase (Homo sapiens) (UniProt O00418); conditions: Compound concentration 1.0 uM
[27] = biological target: Ephrin type-A receptor 1 (Homo sapiens) (UniProt P21709); conditions: Compound concentration 1.0 uM
[28] = biological target: Ephrin type-A receptor 5 (Homo sapiens) (UniProt P54756); conditions: Compound concentration 1.0 uM
[29] = biological target: Receptor-type tyrosine-protein kinase FLT3 (Homo sapiens) (UniProt P36888)
[30] = biological target: Vascular endothelial growth factor receptor 3 (Homo sapiens) (UniProt P35916); conditions: Compound concentration 1.0 uM
[31] = biological target: G protein-coupled receptor kinase 5 (Homo sapiens) (UniProt P34947); conditions: Compound concentration 1.0 uM
[32] = biological target: Glycogen synthase kinase-3 alpha (Homo sapiens) (UniProt P49840); conditions: Compound concentration 1.0 uM
[33] = biological target: Tyrosine-protein kinase JAK2 (Homo sapiens) (UniProt O60674); conditions: Compound concentration 1.0 uM
[34] = biological target: Leukocyte tyrosine kinase receptor (Homo sapiens) (UniProt P29376); conditions: Compound concentration 1.0 uM
[35] = biological target: Tyrosine-protein kinase Lyn (Homo sapiens) (UniProt P07948); conditions: Compound concentration 1.0 uM
[36] = biological target: Mitogen-activated protein kinase kinase kinase 10 (Homo sapiens) (UniProt Q02779); conditions: Compound concentration 1.0 uM
[37] = biological target: Mitogen-activated protein kinase 11 (Homo sapiens) (UniProt Q15759); conditions: Compound concentration 1.0 uM
[38] = biological target: 3-phosphoinositide-dependent protein kinase 1 (Homo sapiens) (UniProt O15530); conditions: Compound concentration 1.0 uM
[39] = biological target: Phosphatidylinositol 4-kinase beta (Homo sapiens) (UniProt Q9UBF8); conditions: Compound concentration 1.0 uM
[40] = biological target: Protein kinase C beta type (Homo sapiens) (UniProt P05771)
[41] = biological target: Protein kinase C eta type (Homo sapiens) (UniProt P24723); conditions: Compound concentration 1.0 uM
[42] = biological target: Ribosomal protein S6 kinase beta-1 (Homo sapiens) (UniProt P23443)
[43] = biological target: Serine/threonine-protein kinase Sgk3 (Homo sapiens) (UniProt Q96BR1); conditions: Compound concentration 1.0 uM

Ribosomal protein S6 kinase beta-1 (Homo sapiens), sequence (P23443 whole entry, looked up): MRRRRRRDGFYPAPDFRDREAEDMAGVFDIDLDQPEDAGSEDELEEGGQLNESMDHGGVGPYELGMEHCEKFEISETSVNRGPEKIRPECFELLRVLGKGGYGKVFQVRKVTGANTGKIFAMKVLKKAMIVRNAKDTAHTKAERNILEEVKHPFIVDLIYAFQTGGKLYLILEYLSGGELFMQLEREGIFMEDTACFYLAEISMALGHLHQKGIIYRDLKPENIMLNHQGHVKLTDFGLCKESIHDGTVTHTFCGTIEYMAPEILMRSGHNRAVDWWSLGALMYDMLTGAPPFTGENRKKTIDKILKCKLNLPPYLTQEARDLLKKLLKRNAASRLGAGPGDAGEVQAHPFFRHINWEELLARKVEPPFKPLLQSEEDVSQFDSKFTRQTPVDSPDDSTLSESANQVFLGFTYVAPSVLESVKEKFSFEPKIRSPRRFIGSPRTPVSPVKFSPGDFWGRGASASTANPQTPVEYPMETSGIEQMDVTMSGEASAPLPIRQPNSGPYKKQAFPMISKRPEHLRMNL
Receptor-type tyrosine-protein kinase FLT3 (Homo sapiens), sequence (P36888 whole entry): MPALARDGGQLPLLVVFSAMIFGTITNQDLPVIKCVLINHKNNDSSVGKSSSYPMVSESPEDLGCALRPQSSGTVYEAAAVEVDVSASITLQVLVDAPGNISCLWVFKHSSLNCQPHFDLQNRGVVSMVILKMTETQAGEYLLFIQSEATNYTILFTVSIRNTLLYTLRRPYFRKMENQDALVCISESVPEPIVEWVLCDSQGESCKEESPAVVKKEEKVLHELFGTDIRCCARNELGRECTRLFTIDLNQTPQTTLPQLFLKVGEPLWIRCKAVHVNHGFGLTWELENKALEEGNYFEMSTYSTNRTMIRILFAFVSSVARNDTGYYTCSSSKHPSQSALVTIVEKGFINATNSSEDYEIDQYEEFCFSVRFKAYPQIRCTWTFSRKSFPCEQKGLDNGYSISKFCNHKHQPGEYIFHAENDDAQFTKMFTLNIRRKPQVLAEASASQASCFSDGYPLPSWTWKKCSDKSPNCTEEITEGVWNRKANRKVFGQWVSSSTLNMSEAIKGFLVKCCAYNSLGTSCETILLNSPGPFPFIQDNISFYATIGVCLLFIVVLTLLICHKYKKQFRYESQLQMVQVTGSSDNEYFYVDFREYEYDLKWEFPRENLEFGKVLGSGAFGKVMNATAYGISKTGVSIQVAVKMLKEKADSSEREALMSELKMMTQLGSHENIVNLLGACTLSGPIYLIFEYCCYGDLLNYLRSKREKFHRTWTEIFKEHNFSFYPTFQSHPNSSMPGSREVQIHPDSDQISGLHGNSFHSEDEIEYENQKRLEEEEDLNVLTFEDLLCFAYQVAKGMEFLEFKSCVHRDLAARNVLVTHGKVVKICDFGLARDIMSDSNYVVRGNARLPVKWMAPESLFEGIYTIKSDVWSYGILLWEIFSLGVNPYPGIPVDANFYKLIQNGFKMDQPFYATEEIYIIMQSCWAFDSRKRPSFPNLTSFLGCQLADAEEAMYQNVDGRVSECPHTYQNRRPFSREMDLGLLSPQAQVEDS
Protein kinase C beta type (Homo sapiens), sequence (P05771 2-671 limits assumed): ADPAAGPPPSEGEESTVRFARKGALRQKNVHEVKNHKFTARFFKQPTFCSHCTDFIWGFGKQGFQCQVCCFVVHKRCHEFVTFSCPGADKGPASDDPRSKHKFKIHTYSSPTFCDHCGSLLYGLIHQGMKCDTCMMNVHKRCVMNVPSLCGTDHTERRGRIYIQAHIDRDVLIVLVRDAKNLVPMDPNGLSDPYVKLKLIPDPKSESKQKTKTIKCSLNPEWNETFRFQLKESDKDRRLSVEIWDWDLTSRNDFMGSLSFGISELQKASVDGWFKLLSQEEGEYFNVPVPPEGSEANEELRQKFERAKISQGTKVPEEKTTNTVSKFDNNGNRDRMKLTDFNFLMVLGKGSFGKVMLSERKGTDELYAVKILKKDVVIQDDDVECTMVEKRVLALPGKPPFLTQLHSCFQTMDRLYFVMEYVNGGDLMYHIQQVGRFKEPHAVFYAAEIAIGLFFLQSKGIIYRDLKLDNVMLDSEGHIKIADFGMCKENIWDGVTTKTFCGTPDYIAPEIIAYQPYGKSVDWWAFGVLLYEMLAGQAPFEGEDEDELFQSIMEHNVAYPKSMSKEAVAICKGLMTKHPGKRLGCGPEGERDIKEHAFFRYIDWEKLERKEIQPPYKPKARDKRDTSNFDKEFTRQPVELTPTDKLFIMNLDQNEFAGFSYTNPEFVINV
Eukaryotic elongation factor 2 kinase (Homo sapiens), sequence (O00418 whole entry): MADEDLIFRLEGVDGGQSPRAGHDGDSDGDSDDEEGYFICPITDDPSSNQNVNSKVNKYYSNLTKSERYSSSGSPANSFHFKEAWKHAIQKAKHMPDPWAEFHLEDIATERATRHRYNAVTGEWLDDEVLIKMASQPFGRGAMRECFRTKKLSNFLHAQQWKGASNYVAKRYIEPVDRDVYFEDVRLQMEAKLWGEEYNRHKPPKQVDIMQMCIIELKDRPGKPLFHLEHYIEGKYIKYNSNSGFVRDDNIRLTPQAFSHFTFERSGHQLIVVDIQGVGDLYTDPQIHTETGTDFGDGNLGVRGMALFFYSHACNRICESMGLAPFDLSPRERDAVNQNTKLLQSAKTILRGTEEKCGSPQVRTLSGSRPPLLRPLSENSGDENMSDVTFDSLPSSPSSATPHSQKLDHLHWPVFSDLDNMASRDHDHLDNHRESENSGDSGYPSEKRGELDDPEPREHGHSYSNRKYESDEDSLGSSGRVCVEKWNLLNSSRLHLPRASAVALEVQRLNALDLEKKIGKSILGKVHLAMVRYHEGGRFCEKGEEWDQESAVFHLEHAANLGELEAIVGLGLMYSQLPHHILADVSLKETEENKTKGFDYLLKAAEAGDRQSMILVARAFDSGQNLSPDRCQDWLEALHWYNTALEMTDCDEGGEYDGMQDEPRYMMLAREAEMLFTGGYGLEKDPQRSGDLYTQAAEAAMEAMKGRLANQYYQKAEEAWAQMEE
Glycogen synthase kinase-3 alpha (Homo sapiens), sequence (P49840 2-483 limits assumed): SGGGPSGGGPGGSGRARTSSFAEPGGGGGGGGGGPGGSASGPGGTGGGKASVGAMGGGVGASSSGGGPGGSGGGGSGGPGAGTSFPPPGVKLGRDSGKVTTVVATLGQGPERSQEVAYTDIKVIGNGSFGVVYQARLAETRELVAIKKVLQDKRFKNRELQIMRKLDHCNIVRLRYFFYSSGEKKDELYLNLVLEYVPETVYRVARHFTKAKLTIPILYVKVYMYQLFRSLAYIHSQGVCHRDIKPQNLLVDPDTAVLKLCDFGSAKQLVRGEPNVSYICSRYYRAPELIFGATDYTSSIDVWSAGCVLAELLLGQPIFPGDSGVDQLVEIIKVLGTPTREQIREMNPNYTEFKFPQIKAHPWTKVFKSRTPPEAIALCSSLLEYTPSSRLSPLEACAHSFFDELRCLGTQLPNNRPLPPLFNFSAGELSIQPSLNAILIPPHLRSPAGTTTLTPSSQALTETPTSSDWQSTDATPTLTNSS
Protein kinase C eta type (Homo sapiens), sequence (P24723 whole entry): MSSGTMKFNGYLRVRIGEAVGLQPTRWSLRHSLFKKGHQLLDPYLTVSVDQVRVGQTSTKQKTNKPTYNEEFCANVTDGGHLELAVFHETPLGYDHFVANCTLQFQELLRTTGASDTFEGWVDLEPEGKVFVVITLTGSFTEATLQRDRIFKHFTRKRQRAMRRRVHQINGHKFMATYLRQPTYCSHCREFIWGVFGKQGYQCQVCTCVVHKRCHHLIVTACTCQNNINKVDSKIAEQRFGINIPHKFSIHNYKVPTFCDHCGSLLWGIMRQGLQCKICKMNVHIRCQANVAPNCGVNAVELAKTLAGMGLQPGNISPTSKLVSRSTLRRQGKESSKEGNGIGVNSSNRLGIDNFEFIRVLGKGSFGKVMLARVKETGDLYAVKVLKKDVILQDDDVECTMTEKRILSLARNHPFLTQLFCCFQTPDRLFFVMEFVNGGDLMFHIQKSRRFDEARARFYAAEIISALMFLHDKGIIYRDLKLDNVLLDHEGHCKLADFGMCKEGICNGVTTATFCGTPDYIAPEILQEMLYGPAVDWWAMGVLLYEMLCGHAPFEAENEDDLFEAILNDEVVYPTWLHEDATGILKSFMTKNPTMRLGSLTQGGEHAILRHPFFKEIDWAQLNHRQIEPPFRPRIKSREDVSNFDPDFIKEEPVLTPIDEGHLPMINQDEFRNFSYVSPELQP
Leukocyte tyrosine kinase receptor (Homo sapiens), sequence (P29376 whole entry): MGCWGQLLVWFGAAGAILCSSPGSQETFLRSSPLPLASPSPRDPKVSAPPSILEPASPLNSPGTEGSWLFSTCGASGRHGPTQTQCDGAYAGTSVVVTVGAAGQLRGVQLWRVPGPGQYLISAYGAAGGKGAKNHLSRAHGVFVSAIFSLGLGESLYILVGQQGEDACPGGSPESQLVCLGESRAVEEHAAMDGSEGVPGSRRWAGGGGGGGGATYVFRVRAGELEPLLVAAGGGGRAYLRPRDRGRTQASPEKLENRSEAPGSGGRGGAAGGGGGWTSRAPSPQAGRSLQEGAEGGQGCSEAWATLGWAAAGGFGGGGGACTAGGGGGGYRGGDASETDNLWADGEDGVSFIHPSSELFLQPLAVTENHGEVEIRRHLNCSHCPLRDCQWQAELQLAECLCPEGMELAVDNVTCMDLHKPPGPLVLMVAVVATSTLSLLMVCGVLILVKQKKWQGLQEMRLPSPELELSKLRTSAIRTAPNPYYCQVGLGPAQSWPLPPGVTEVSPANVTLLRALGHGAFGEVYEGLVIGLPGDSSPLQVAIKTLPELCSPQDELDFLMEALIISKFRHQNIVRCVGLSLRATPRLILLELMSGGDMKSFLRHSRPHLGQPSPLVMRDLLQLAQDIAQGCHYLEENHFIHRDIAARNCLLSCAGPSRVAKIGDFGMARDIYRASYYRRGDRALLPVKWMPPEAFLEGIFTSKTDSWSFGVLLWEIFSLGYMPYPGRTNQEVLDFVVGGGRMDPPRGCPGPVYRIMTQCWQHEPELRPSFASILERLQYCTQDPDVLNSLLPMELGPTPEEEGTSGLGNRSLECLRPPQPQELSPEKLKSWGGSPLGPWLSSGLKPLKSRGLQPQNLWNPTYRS

CCC(F)(F)c1cc(N2CCC(S(C)(=O)=O)CC2)nc2sc(C(N)=O)c(N)c12 [BI-605906]
active: residual activity [2] 31% | residual activity [14] 19.3% | residual activity ([29]; Compound concentration 10.0 uM) 38%
inactive: residual activity [1] 86% | residual activity [3] 107% | residual activity [4] 67% | residual activity [5] 102% | residual activity [6] 86% | residual activity [7] 83% | residual activity [8] 75% | residual activity [9] 107% | residual activity [10] 106% | residual activity [11] 103% | residual activity [12] 112% | residual activity [13] 63.8% | residual activity [15] 56.3% | residual activity [16] 85.3% | inhibition [17] 13.4% | inhibition [18] 0.2% | inhibition [19] 18.9% | residual activity [20] 105% | residual activity [21] 82% | residual activity [22] 105% | residual activity [23] 91% | residual activity [24] 97% | residual activity [25] 92% | residual activity [26] 98% | residual activity [27] 82% | residual activity [28] 94% | residual activity ([29]; Compound concentration 1.0 uM) 71% | residual activity [30] 97% | residual activity [31] 96% | residual activity [32] 99% | residual activity [33] 94% | residual activity [34] 99% | residual activity [35] 82% | residual activity [36] 98% | residual activity [37] 98% | residual activity [38] 82% | residual activity [39] 92% | residual activity ([40]; Compound concentration 1.0 uM) 89% | residual activity ([40]; Compound concentration 10.0 uM) 102% | residual activity [41] 100% | residual activity ([42]; Compound concentration 1.0 uM) 94% | residual activity ([42]; Compound concentration 10.0 uM) 66% | residual activity [43] 96%
